The source of these data is paper PMC1892040 (PLoS Medicine, 2007).

Each structure is given as a SMILES string. Like-named read-outs stand apart in the source and are kept apart here.

The subject of one data set is Human TGR. The conditions noted are these: read-out: Apparent Km, Human TGR; cited from earlier work.
A further data set concerns Human TrxR1. The conditions noted are these: read-out: Apparent Km, Human TrxR1; cited from earlier work.
Data set [1] addresses T1, S. mansoni TGR (Schistosoma mansoni, UniProt Q962Y6).
T1 sequence (Q962Y6 1-598): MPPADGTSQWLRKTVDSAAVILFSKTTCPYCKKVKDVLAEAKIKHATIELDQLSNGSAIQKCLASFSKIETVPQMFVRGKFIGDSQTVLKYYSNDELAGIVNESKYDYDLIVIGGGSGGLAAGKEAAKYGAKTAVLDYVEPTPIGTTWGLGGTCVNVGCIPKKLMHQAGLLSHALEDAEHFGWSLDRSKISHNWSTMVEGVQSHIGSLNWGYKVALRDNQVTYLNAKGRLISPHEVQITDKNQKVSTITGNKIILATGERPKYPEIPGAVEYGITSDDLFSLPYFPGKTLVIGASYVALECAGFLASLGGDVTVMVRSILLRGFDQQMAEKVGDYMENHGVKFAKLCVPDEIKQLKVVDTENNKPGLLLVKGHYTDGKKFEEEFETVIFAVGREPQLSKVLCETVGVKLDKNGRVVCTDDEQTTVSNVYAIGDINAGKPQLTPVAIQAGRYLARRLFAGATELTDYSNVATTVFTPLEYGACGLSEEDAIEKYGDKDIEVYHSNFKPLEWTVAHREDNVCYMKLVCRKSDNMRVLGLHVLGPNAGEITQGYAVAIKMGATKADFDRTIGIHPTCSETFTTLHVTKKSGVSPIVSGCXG
The data set can be described thus: Kinetic analysis of recombinant S. mansoni TGR with substrates. The method, then: Kinetic parameters were determined using Lineweaver–Burk plots using KaleidaGraph 4 (Synergy Software, http://www.synergy.com) least squares best fit of data and varying concentrations of one substrate while maintaining the concentration of other substrates. […] All assays were done in triplicate.

Data set [2] has as its target T2, Human GR (Homo sapiens, UniProt P00390).
T2 sequence (P00390 44-522): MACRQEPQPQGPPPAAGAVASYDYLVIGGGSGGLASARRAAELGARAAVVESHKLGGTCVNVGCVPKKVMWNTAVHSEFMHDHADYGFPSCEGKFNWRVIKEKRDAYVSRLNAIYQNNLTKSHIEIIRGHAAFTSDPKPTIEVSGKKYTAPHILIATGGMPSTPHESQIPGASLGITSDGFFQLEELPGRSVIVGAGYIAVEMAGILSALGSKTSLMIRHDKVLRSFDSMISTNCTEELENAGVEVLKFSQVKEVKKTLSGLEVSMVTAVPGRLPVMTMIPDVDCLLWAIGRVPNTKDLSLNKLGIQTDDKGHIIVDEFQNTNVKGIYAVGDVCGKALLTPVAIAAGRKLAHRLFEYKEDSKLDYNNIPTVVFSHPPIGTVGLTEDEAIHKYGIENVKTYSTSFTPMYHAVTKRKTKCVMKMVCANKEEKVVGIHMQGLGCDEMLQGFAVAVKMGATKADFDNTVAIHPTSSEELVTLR
To be noted: read-out: Apparent Km, Human GR; cited from earlier work.

In data set [3] the target is T1, S. mansoni TGR. The data set can be described thus: biochemical. It is filed as biochemical. Also noted: The entire TGR ORF plus the SECIS element was subcloned into pET-24a; made in house; host or cells: Escherichia coli BL21(DE3) with pSUABC. To be noted: for Type of inhibition of TGR: reciprocal plots, TrxR and GR activities. The method, then:
The inhibitory constants (K i) were determined using Equation 1 [21]: [drawing 1] where v maxapp is the apparent v max at different inhibitor concentrations and corresponds to the value of the 1/v intercept on the reciprocal plot.
The apparent Vmax for various concentrations of inhibitors were used to calculate K i values. Concentrations of PAT are no drug (♦), 10 nM, 30 nM (▴), and 75 nM (×); and of OPZ are no drug (♦), 50 μM, 75 μM (▴), and 100 μM (×).

Data set [4] concerns the target T1, S. mansoni TGR.
Description: (§1) Assays were performed at 25 °C in 0.1 M potassium phosphate (pH 7.4), 10 mM EDTA using 100 μM NADPH unless otherwise stated.
(§2) Initial inhibitor screens were conducted in 200 μl volumes in 96 well plates with 50 μM inhibitor, 100 μM NADPH, and 5 nM TGR in 0.1 M potassium phosphate (pH 7.4), 10 mM EDTA with a preincubation step of 15 min. […] All assays were done in triplicate.
The target in data set [5] is T1, S. mansoni TGR. The conditions noted are these: rough estimation at low OPZ concentrations. The procedure: OPZ concentrations were 0 (•), 25 (□), 50 (♦), 75 (Δ), and 100 (▴) μM. All incubation mixtures included 2% final DMSO. […] The error bars in (B) and (D) represent ± the standard errors of the k obs values estimated separately at each inhibitor concentration, as obtained from nonlinear regression analysis.

In data set [6] the target is T2, Human GR. The data set can be described thus: Inhibition of human GR (GSSG). The conditions noted are these: 12.5 μM compound, 200 μM disulfide substrate, preincubation 60 min at 37 °C; read-out: Percent inhibition of Human GR. It is filed as biochemical.
Excerpt: In order to assess the potential for inhibition of TGR we screened several structurally diverse series of compounds (Figure S1) known to act as inhibitors of disulfide reductases from various organisms.
Another data set has as its target T3, Human TrxR (Homo sapiens, UniProt Q16881).
T3 sequence (Q16881 1-499 isoform Q16881-5): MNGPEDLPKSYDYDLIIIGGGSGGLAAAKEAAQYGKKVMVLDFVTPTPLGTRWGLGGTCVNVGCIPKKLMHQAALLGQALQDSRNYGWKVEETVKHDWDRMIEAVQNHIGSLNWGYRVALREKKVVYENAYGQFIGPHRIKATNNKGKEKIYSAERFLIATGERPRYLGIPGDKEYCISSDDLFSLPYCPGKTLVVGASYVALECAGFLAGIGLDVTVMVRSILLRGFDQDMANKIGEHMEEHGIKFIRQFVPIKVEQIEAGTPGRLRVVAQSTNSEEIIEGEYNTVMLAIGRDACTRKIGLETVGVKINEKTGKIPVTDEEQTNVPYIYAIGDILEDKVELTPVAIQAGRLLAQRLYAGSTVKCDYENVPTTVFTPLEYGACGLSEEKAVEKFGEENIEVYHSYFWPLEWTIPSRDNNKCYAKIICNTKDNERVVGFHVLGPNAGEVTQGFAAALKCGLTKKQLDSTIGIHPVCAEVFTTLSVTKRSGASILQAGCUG
The data set can be described thus: Inhibition of human TrxR (DTNB/Trx). The conditions noted are these: 12.5 μM compound, 200 μM disulfide substrate, preincubation 60 min at 37 °C; read-out: Percent inhibition of Human TrxR. It is filed as biochemical.

In data set [7] the target is T1, S. mansoni TGR. It is filed as biochemical. To be noted: read-out: IC50 S. mansoni TGR, GSSG (GR activity). Also on record: The entire TGR ORF plus the SECIS element was subcloned into pET-24a; made in house; host or cells: Escherichia coli BL21(DE3) with pSUABC.
Description: as §1, §2
In another data set the test system is myeloma cell line SP2/0. Description: Cytotoxicity assay (sulforhodamine B). It is filed as cell-based. To be noted: adult worms 24 h; myeloma cells 24 h and 5 d. The procedure: Cytotoxicity assays were performed using sulforhodamine B to determine cellular protein content as described. Briefly, myeloma cell line SP2/0 was cultured in 96-well microtiter plates containing 0.2 ml of RPMI-1640 per well at a cell density of 1,000 per well at 37 °C in 5% CO2. Cells were treated with drug concentrations (or drug carrier alone) and exposure times as indicated. After treatment, cells were fixed with 10% TCA at 4 °C for 1 h. Fixed cells were rinsed to remove fixative and then stained in 0.4% (w/v) sulforhodamine B (Sigma) in 1% acetic acid for 30 min. After washing with 1% acetic acid and dye extraction in 10 mM Tris (pH 10.5), plates were read at A564nm. The A564nm of drug-treated cells was compared to carrier-only-treated cells. The treatments were done in triplicate and the experiments repeated three times.

Data set [8] concerns the target phosphofructokinase (PFK). Also noted: method as in PMID 8898332. To be noted: cited from earlier work.
For data set [9], the target named is T1, S. mansoni TGR. It is filed as biochemical. Also noted: The entire TGR ORF plus the SECIS element was subcloned into pET-24a; made in house; host or cells: Escherichia coli BL21(DE3) with pSUABC. The conditions noted are these: read-out: IC50 S. mansoni TGR, DTNB (TrxR activity).
Description: as §1, §2
[10] abbreviates: substrate of TGR (20 nM), 25 °C, pH 7.4, 100 μM NADPH, ± SD.

For the compound `NC(=O)C1=CN([C@@H]2O[C@H](COP(=O)(O)OP(=O)(O)OC[C@H]3O[C@@H](n4cnc5c(N)ncnc54)[C@H](OP(=O)(O)O)[C@@H]3O)[C@@H](O)[C@H]2O)C=CC1` [NADPH], the Km – broadly, the concentration of substrate that gives half-maximal velocity – in the data set with Human TGR is 10.7 µM; in the data set with Human TrxR1 it was 19.6 µM; at S. mansoni TGR [1] (read-out: Apparent Km, S. mansoni TGR), 13.7 µM; on S. mansoni TGR [1] (setting [10]) it was 13.7 ± 2.4 µM; on Human GR [2], 8.5 µM. In addition, the catalytic constant (kcat) (as a rule, the maximal rate divided by the concentration of active sites) on S. mansoni TGR [1] (substrate of TGR (20 nM), 25 °C, pH 7.4, 100 μM NADPH) was determined as 20.1 s⁻¹. Further, at S. mansoni TGR [1] (setting [10]), the Vmax (in general, the top rate of the reaction or transport when substrate is in excess) was found to be 25.1 ± 1.8 µM/min.
For `Cc1c(-c2cnccn2)ssc1=S` [OPZ, oltipraz], the inhibitory constant (Ki) (as a rule, a dissociation constant, usually derived from enzyme kinetics or from competition with a known ligand) came out at 33800 ± 6000 nM at S. mansoni TGR [3] (Ki (± standard deviation), GR activity of TGR, GSSG as substrate) and 18100 ± 1100 nM on S. mansoni TGR [3] (Ki (± standard deviation), TrxR activity of TGR, DTNB as substrate). For the same compound, at S. mansoni TGR [3], the “Type of inhibition of TGR” value is listed as “noncompetitive”. Besides, at S. mansoni TGR [4], the activity came to 13%. Besides, the “k i, first-order rate constant for irreversible inactivation, GR assay” value on S. mansoni TGR [5] was approximately 0.04 min⁻¹. For the same compound, the “k i, first-order rate constant for irreversible inactivation, TrxR assay” value on S. mansoni TGR [5] was approximately 0.06 min⁻¹. Moreover, the inhibition (as a rule, the percentage by which the read-out fell short of the control) at 12.5 µM on Human GR [6] was determined as 0%; on Human TrxR, 37%.
As for `O.O.O.O=C([O-])[C@H]([O-])[C@@H]([O-])C(=O)[O-].O=C([O-])[C@H]([O-])[C@@H]([O-])C(=O)[O-].[K+].[K+].[Sb+3].[Sb+3]` [PAT, potassium antimonyl tartrate], the Ki is 4.86 ± 0.46 nM on S. mansoni TGR [3] (DTNB as substrate, read-out: Ki (± standard deviation), TrxR activity of TGR) and 7.22 ± 4.96 nM on S. mansoni TGR [3] (GSSG as substrate, read-out: Ki (± standard deviation), GR activity of TGR). In addition, the “Type of inhibition of TGR” value at S. mansoni TGR [3] is given as “noncompetitive”. Moreover, the “Activity of Enzyme (% of Uninhibited Enzyme)” value at S. mansoni TGR [4] turned out to be 0%. For the same compound, the IC50 (commonly the point on the concentration scale where inhibition reaches its midpoint) was 37 nM at S. mansoni TGR [7], 16000 nM in data set [8] and 51 nM on S. mansoni TGR [9]. In the data set on myeloma cell line SP2/0, the “Differential in toxicity between adult worms and mammalian cells” value is “similarly large differential in toxicity”.
